Source: patent US12263153B2, “Pharmaceutical composition, methods for treating and uses thereof” (Boehringer Ingelheim International GmbH, priority 2016, dated 2025)

How the values were obtained:
[1] = blood pressure, heart rate and sympathetic activation under empagliflozin treatment; type: in vivo; conditions: treatment with empagliflozin
Text: It may be assumed that altered glucose and sodium gradients within the kidney may generate a sympathoinhibitory afferent renal nerve signal. The lack of sympathetic activation may contribute to a beneficial cardiovascular and renal profile of empagliflozin (cardiorenal axis). Based on clinical and non-clinical studies including mechanistic considerations, such as the effect of empagliflozin on human autonomic cardiovascular regulation, the use of empagliflozin in the treatment, prevention or slowing the progression of certain diseases and conditions or reducing the risk thereof, in particular chronic kidney disease and cardiovascular death in certain patients, is described hereinbefore and hereinafter.

[2] = patients with type 2 diabetes mellitus and high cardiovascular risk; cited from earlier work
[3] = human, in vivo; cited from earlier work

OC[C@H]1O[C@@H](c2ccc(Cl)c(Cc3ccc(O[C@H]4CCOC4)cc3)c2)[C@H](O)[C@@H](O)[C@@H]1O [empagliflozin, 1-chloro-4-(β-D-glucopyranos-1-yl)-2-[4-((S)-tetrahydrofuran-3-yloxy)-benzyl]-benzene]
heart rate [1]: without clinically relevant changes
risk of cardiovascular death [2]: reduced the risk
risk of overall mortality [2]: reduced the risk
arterial stiffness [3]: reduced arterial stiffness
direct vascular effects [3]: direct vascular effects
diuretic effect [3]: shows a diuretic effect
